Laboratory results: ChEMBL document CHEMBL1201862, “PubChem BioAssay data set” (2004)
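1) Cells in 96-well plates. 2) Compound, 48 h, 5 concentrations. 3) Linear interpolation between surrounding doses. 4) Unreached endpoint = highest concentration. Abbreviation: GI50, concentration required for 50% inhibition of growth.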 Activity calls are given as the source filed them. No stated cut-off is given here; in the data, active = GI50 up to about 1.1 µM and inactive = higher.

Legend:
Assay in all cases: inhibition of tumour cell growth, NCI panel, 48 h
[1] = tested on: HOP-92
[2] = tested on: HCC 2998
[3] = tested on: SF-295
[4] = tested on: TK-10
[5] = tested on: HT-29
[6] = tested on: NCI-H226
[7] = tested on: M14
[8] = tested on: OVCAR-8
[9] = tested on: HOP-62
[10] = tested on: COLO 205
[11] = tested on: NCI-H522
[12] = tested on: SNB-75
[13] = tested on: SK-MEL-2
[14] = tested on: SN12C
[15] = tested on: NCI-H460
[16] = tested on: Malme-3M
[17] = tested on: A549
[18] = tested on: M19-MEL
[19] = tested on: EKVX
[20] = tested on: NCI/ADR-RES

| SMILES | GI50 [1] | GI50 [2] | GI50 [3] | GI50 [4] | GI50 [5] | GI50 [6] | GI50 [7] | GI50 [8] | GI50 [9] | GI50 [10] | GI50 [11] | GI50 [12] | GI50 [13] | GI50 [14] | GI50 [15] | GI50 [16] | GI50 [17] | GI50 [18] | GI50 [19] | GI50 [20] |
| --- | --- | --- | --- | --- | --- | --- | --- | --- | --- | --- | --- | --- | --- | --- | --- | --- | --- | --- | --- | --- |
| CCOc1ccccc1NC(=O)C1=C(C)NC(C)=C(C(=O)Nc2ccccc2OCC)C1c1cccc([N+](=O)[O-])c1 | 4.29 µM (inactive) | 36.6 µM (inactive) | > 100 µM (inactive) | > 100 µM (inactive) | 98.4 µM (inactive) | 80.4 µM (inactive) | > 100 µM (inactive) | 86.5 µM (inactive) | 39.3 µM (inactive) | > 100 µM (inactive) | 22.4 µM (inactive) | 11.6 µM (inactive) | 39.3 µM (inactive) | > 100 µM (inactive) | 87.9 µM (inactive) | 58.3 µM (inactive) | 31.6 µM (inactive) | > 100 µM (inactive) | 30.1 µM (inactive) |  |
| CC1=C(C(=O)NCc2ccccc2)C(c2ccc(Cl)c(Cl)c2)C(C(=O)NCc2ccccc2)=C(C)N1 | > 100 µM (inactive) | > 100 µM (inactive) | > 100 µM (inactive) | > 100 µM (inactive) | > 100 µM (inactive) | > 100 µM (inactive) | > 100 µM (inactive) | > 100 µM (inactive) | > 100 µM (inactive) |  | > 100 µM (inactive) | > 100 µM (inactive) | > 100 µM (inactive) | > 100 µM (inactive) | > 100 µM (inactive) | > 100 µM (inactive) | > 100 µM (inactive) | > 100 µM (inactive) | > 100 µM (inactive) |  |
| COC(=O)c1c[nH]c2nc(N3CCOCC3)nn2c1=O | > 100 µM (inactive) | > 100 µM (inactive) | > 100 µM (inactive) | > 100 µM (inactive) | > 100 µM (inactive) | > 100 µM (inactive) | > 100 µM (inactive) | > 100 µM (inactive) | > 100 µM (inactive) | > 100 µM (inactive) | > 100 µM (inactive) | > 100 µM (inactive) | > 100 µM (inactive) | > 100 µM (inactive) | > 100 µM (inactive) | > 100 µM (inactive) | > 100 µM (inactive) | > 100 µM (inactive) | > 100 µM (inactive) |  |
| O=C(c1ccccc1)C1N=NN(Cc2ccccc2[N+](=O)[O-])C1C(=O)c1ccccc1 (stereo not given) | > 100 µM (inactive) | 96.8 µM (inactive) | > 100 µM (inactive) | > 100 µM (inactive) | > 100 µM (inactive) | > 100 µM (inactive) | > 100 µM (inactive) | > 100 µM (inactive) | > 100 µM (inactive) | 34.5 µM (inactive) | > 100 µM (inactive) | 41.5 µM (inactive) | > 100 µM (inactive) |  | > 100 µM (inactive) | > 100 µM (inactive) | 37.8 µM (inactive) | > 100 µM (inactive) | > 100 µM (inactive) |  |
| O=C1/C(=C/c2ccc(Cl)c(Cl)c2)CNC/C1=C\c1ccc(Cl)c(Cl)c1 | 22 µM (inactive) | 9.66 µM (inactive) | 9.2 µM (inactive) | 31 µM (inactive) | 5.35 µM (inactive) | 21.9 µM (inactive) | 15.8 µM (inactive) | 3.92 µM (inactive) | 14.5 µM (inactive) | 5.27 µM (inactive) | 11 µM (inactive) | 10.8 µM (inactive) | 23.3 µM (inactive) | 5.08 µM (inactive) | 10.3 µM (inactive) | 28.1 µM (inactive) | 14.8 µM (inactive) | 22.3 µM (inactive) | 6.17 µM (inactive) | 3.66 µM (inactive) |
| COc1ccc(Cc2cc(OC)c(OC)c(OC)c2)cc1O | 0.119 µM (active) | 2.41 µM (inactive) | 0.286 µM (active) | > 90.4 µM (inactive) | 14.3 µM (inactive) | 36.7 µM (inactive) | 0.0255 µM (active) | 0.0769 µM (active) | 0.109 µM (active) | > 40.2 µM (inactive) | 0.12 µM (active) | < 0.01 µM (active) | 0.0702 µM (active) | 0.173 µM (active) | 0.0841 µM (active) | 0.0389 µM (active) | 0.119 µM (active) | 0.0861 µM (active) | 24.7 µM (inactive) | < 0.01 µM (active) |
| CC1=C(CC2C(=O)N(c3ccccc3)S(=O)(=O)NC2C)C(=O)N(c2ccccc2)S(=O)(=O)N1C (stereo not given) | > 100 µM (inactive) | > 100 µM (inactive) | > 100 µM (inactive) | > 100 µM (inactive) | > 100 µM (inactive) | > 100 µM (inactive) | > 100 µM (inactive) | > 100 µM (inactive) | > 100 µM (inactive) | > 100 µM (inactive) | > 100 µM (inactive) | > 100 µM (inactive) | > 100 µM (inactive) | > 100 µM (inactive) | > 100 µM (inactive) | > 100 µM (inactive) | > 100 µM (inactive) | > 100 µM (inactive) | > 100 µM (inactive) |  |
| COc1cc2c(c(OC)c1OC)-c1ccc(OC)c(=O)cc1C(NC(=O)COc1ccccc1)CC2 (stereo not given) | < 0.01 µM (active) | < 0.01 µM (active) | < 0.01 µM (active) | 0.627 µM (active) | < 0.01 µM (active) | < 0.0372 µM (active) | < 0.01 µM (active) | < 0.01 µM (active) | < 0.01 µM (active) | < 0.01 µM (active) | < 0.01 µM (active) | < 0.01 µM (active) | < 0.01 µM (active) | < 0.01 µM (active) | < 0.01 µM (active) | < 0.01 µM (active) | < 0.01 µM (active) | < 0.01 µM (active) | 0.731 µM (active) | 0.0546 µM (active) |
| O=[N+]([O-])c1ccc(-n2nnc(C3=NCCN3)c2-c2ccccc2)cc1 | > 100 µM (inactive) | > 100 µM (inactive) | > 100 µM (inactive) | > 100 µM (inactive) | > 100 µM (inactive) | > 100 µM (inactive) | > 100 µM (inactive) | > 100 µM (inactive) | > 100 µM (inactive) | > 100 µM (inactive) | > 100 µM (inactive) | > 100 µM (inactive) | > 100 µM (inactive) | > 100 µM (inactive) | > 100 µM (inactive) | > 100 µM (inactive) | > 100 µM (inactive) | > 100 µM (inactive) | > 100 µM (inactive) |  |
| Fc1cccc(/C=N/C23CC4CC(CC(C4)C2)C3)c1 | > 100 µM (inactive) | > 100 µM (inactive) | > 100 µM (inactive) | > 100 µM (inactive) | > 100 µM (inactive) | > 100 µM (inactive) | > 100 µM (inactive) | > 100 µM (inactive) | > 100 µM (inactive) | > 100 µM (inactive) | > 100 µM (inactive) | > 100 µM (inactive) | > 100 µM (inactive) | > 100 µM (inactive) | > 100 µM (inactive) | > 100 µM (inactive) |  | > 100 µM (inactive) | > 100 µM (inactive) |  |
